PMC9067978, “Design, synthesis, and molecular docking studies of novel pomalidomide-based PROTACs as potential anti-cancer agents targeting EGFR^WT and EGFR^T790M” (Journal of Enzyme Inhibition and Medicinal Chemistry, 2022)

How the values were obtained:
EGFR^WT = molecular target: T1, EGFR^WT (Homo sapiens, UniProt P00533); assay: EGFR^WT kinase inhibitory assay (HTRF); assay type: biochemical; conditions: ATP 1.65 µM, mean ± S.D of three experiments
T1 construct: purchased Sigma
Procedure: (§1) This test used HTRF[44] assay with EGFR^WT and EGFR^T790M (Sigma). For the first 5 minutes, the evaluated compounds were incubated with EGFR^WT and/or EGFR^T790M and their substrates in the enzymatic buffer. […] The assay was performed at 37 °C for 30 minutes. The addition of EDTA-containing detection reagents halted the process. After one hour detection period, GraphPad Prism 5.0 was used to calculate the IC50 values. For each concentration, three separate trials were carried out.

EGFR^T790M = molecular target: T2, EGFR^T790M (Homo sapiens, UniProt P00533, T790M); assay: EGFR^T790M kinase inhibitory assay (HTRF); assay type: biochemical; conditions: ATP 1.65 µM, mean ± S.D of three experiments, read-out: EGFR^790M IC50
T2 construct: purchased Sigma
Procedure: as §1

HCT-116 = assay: DNA-flow cytometric cell cycle analysis, HCT-116; assay type: cell-based, human; conditions: 3.32 µM, 24 hours
Procedure: Then, the influence of compound 16 on the cell cycle profile was then investigated.
The cells that had been tested were then trypsinized and washed in sterilised phosphate buffer saline (PBS). The collected cells were fixed with cold ethanol (100%, 1.5 ml). According to the manufacturer’s instructions, a Cycle TESTTM PLUS DNA Reagent Kit was used to dye the cells (BD Biosciences, San Jose, CA). A flow cytometer was used to assess cell-cycle distribution.[52]

HepG-2 = assay: Annexin V/propidium iodide apoptosis assay, HepG-2; assay type: cell-based, human; conditions: 3.02 µM, 24 hours
Procedure: The double staining Annexin V/propidium iodide technique was performed to assess the mechanism of cell death and apoptosis-inducing activity.[46] […] As shown in (Figure 7 (A and B).
The negative control was chosen to be DMSO. The cells were then collected and washed twice in PBS. The cells were separated using centrifugation. An apoptosis detection kit (BD Biosciences, SanJose, CA) was used in this investigation. Following the manufacturer’s instructions, the cells were dyed with Annexin V-FITC and propidium iodide (PI) in the binding buffer for 20 minutes at 37 °C in the darkness. A flow cytometer was used to assess the binding of Annexin V-FITC and PI. The frequencies in all quadrants were investigated using the Flowjo program.[53]

T1 sequence (P00533 25-1210): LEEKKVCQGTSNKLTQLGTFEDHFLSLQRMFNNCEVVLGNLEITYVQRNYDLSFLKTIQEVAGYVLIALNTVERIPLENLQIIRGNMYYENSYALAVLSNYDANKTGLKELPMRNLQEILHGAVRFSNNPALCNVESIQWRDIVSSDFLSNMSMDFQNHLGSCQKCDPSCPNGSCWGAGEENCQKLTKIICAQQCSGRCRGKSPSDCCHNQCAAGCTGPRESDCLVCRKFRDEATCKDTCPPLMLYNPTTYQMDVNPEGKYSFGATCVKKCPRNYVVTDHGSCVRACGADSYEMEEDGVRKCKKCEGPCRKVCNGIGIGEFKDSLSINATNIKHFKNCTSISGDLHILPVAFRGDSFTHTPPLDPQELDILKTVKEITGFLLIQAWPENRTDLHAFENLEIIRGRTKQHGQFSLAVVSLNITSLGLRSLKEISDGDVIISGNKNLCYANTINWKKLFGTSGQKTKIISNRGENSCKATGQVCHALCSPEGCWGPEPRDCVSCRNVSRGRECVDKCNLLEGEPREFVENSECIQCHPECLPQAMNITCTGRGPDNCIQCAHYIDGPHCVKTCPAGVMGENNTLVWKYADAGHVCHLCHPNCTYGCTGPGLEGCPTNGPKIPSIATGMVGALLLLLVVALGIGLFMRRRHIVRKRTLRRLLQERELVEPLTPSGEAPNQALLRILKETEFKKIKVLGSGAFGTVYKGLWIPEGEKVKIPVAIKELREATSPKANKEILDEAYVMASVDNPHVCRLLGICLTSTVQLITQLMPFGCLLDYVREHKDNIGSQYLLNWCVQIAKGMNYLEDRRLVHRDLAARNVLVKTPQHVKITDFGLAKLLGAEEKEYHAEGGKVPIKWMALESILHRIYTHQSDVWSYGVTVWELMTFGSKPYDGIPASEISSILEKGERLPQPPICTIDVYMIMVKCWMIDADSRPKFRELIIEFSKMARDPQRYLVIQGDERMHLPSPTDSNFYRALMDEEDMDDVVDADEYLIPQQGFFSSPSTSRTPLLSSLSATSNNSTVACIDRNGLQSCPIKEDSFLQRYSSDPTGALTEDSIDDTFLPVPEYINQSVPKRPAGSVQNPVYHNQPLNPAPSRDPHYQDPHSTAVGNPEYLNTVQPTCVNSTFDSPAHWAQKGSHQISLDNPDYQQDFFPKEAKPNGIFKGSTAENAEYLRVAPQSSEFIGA
T2 sequence (P00533 25-1210 T790M): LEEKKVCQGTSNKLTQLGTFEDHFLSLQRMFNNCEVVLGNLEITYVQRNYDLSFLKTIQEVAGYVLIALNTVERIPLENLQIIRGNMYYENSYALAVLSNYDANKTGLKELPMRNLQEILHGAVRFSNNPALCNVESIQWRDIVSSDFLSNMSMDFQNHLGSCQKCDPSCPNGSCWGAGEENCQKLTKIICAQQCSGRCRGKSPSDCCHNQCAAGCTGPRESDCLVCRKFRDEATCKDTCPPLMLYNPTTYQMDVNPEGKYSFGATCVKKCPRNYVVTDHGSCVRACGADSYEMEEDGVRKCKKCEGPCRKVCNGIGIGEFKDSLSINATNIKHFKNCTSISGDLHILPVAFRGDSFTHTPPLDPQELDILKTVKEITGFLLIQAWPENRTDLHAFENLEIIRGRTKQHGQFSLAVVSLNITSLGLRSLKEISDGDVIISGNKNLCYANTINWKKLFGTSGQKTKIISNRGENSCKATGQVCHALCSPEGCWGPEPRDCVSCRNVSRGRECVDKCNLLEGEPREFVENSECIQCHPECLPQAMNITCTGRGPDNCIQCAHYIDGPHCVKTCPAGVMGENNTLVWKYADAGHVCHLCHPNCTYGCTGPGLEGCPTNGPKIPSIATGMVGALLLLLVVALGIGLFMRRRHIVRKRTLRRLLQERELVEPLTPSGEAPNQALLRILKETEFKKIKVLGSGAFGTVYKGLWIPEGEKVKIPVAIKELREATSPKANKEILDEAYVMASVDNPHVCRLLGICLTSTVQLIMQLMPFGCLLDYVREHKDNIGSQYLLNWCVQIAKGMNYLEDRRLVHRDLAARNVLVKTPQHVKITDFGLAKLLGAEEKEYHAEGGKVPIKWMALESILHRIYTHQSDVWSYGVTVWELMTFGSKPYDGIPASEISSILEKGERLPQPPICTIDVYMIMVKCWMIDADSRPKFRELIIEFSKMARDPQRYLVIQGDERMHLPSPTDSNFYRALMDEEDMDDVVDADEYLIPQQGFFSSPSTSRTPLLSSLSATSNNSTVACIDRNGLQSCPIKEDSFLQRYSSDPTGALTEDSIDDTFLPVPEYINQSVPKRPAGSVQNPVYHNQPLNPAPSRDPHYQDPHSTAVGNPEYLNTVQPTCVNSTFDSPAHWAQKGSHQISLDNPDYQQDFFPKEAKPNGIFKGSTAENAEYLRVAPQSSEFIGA

Cn1c(=O)c(C(=O)NNCCOCCOCC(=O)Nc2cccc3c2C(=O)N(C2CCC(=O)NC2=O)C3=O)nc2ccccc21 (stereo not shown) [Compound 16, N-(2-(2,6-dioxopiperidin-3-yl)-1,3-dioxoisoindolin-4-yl)-2-(2-(2-(2-(4-methyl-3-oxo-3,4-dihydroquinoxaline-2-carbonyl) hydrazinyl)ethoxy)ethoxy) acetamide]
IC50 (EGFR^WT): 100 ± 30 nM | IC50 (EGFR^T790M): 4020 ± 190 nM | fold increase of cells in G2-M phase vs control, HCT-116 (HCT-116): 1.49 fold | fold increase of cells in pre-G1 phase vs control, HCT-116 (HCT-116): 5.37 fold | cellular apoptosis, early and late, folds vs control, HepG-2 (HepG-2): ~13 folds | early apoptosis ratio, HepG-2 (HepG-2): 7.55% | late apoptosis ratio, HepG-2 (HepG-2): 5.53%
